≈ marks a conversion by molar mass, not a printed value. Like-named read-outs stand apart in the source and are kept apart here.
Experiments:
Assay type in all cases: cell-based
E. coli MP-9 ΔTolC = assay: MIC against E. coli MP-9 ΔTolC; settings: Escherichia coli
[1] = tested on: S. aureus UNT96, NRS710, MP-618 (USA100, Erythro > 8); assay: microbe, parasite or virus in culture; settings: Staphylococcus aureus
[2] = tested on: S. aureus MP-549 msr(a) USA 300; assay: MIC against S. aureus MP-549 msr(a) USA 300; settings: Staphylococcus aureus, USA300, S. aureus MP-549 msr(a) USA 300
K. pneumoniae ATCC 10031 = assay: MIC against K. pneumoniae ATCC 10031; settings: Klebsiella pneumoniae, ATCC10031
P. aeruginosa ATCC 27853 = assay: MIC against P. aeruginosa ATCC 27853; settings: Pseudomonas aeruginosa, ATCC27853
S. aureus ATCC 29213 = assay: MIC against S. aureus ATCC 29213; settings: Staphylococcus aureus
E. coli ATCC 25922 = assay: MIC against E. coli ATCC 25922; settings: Escherichia coli, ATCC25922
[3] = tested on: S. aureus MP-513 clinical cErm; assay: MIC against S. aureus MP-513 clinical cErm; settings: Staphylococcus aureus
[4] = tested on: S. aureus UNT-146, MP-620, TP 506 (ermA); assay: microbe, parasite or virus in culture; settings: Staphylococcus aureus
E. faecalis UNT-047 VRE = assay: microbe, parasite or virus in culture; settings: Enterococcus faecalis
S. pyogenes ATCC 19615 = assay: MIC against S. pyogenes ATCC 19615; settings: Streptococcus pyogenes, ATCC19615
[5] = tested on: S. aureus UNT-120, MP-619, NR522 (USA 600, GISA); assay: microbe, parasite or virus in culture; settings: Staphylococcus aureus, USA600
S. aureus BAA 977 iErmA = assay: MIC against S. aureus BAA 977 iErmA; settings: Staphylococcus aureus, BAA977
E. faecalis ATCC 29212 = assay: MIC against E. faecalis ATCC 29212; settings: Enterococcus faecalis
E. coli GUEST131 (NDM-1) = assay: microbe, parasite or virus in culture; settings: Escherichia coli
[6] = tested on: S. pneumoniae TP 1537 (ermB + mefA); assay: MIC against S. pneumoniae TP 1537 (ermB + mefA); settings: Streptococcus pneumoniae
[7] = tested on: S. pneumoniae UNT-038, MP-626, TP 160 (mefA); assay: MIC against S. pneumoniae UNT-038, MP-626, TP 160 (mefA); settings: Streptococcus pneumoniae
H. influenzae ATCC 49247 = assay: MIC against H. influenzae ATCC 49247; settings: Haemophilus influenzae, ATCC49247; H. influenzae ATCC 49247; read-out: MIC
S. pneumoniae ATCC 49619 = assay: MIC against S. pneumoniae ATCC 49619; settings: Streptococcus pneumoniae, ATCC49619; S. pneumoniae ATCC 49619; read-out: MIC
E. coli ATCC 15922 = assay: MIC against E. coli ATCC 15922; settings: Escherichia coli, ATCC15922
[8] = tested on: S. aureus BAA-1556 (USA 300); assay: microbe, parasite or virus in culture; settings: Staphylococcus aureus
[9] = tested on: S. pyogenes UNT-014, MP-625 MacRes; assay: MIC against S. pyogenes UNT-014, MP-625 MacRes; settings: Streptococcus pyogenes
[10] = tested on: K. pneumoniae IHMA 658692; KPC-2; assay: microbe, parasite or virus in culture; settings: Klebsiella pneumoniae
[11] = tested on: S. pneumoniae UNT-039, MP-627, TP1517 (mefA); assay: MIC against S. pneumoniae UNT-039, MP-627, TP1517 (mefA); settings: Streptococcus pneumoniae
[12] = tested on: S. pneumoniae TP 1579 (ermB + tet(M, O)); assay: MIC against S. pneumoniae TP 1579 (ermB + tet(M, O)); settings: Streptococcus pneumoniae
[13] = tested on: E. faecalis MMX 847 Macrolide-Resistant; assay: MIC against E. faecalis MMX 847 Macrolide-Resistant; settings: Enterococcus faecalis
C. difficile BAA 1805 = assay: MIC against C. difficile BAA 1805; settings: Clostridioides difficile, BAA1805; C. difficile BAA 1805; read-out: MIC
[14] = tested on: E. coli MMX TolC parent strain; assay: MIC against E. coli MMX TolC parent strain; settings: Escherichia coli
[15] = tested on: P. aeruginosa MMX Mex parent strain; assay: MIC against P. aeruginosa MMX Mex parent strain; settings: Pseudomonas aeruginosa
K. pneumoniae UNT TEM-10 = assay: microbe, parasite or virus in culture; settings: Klebsiella pneumoniae, UNTTEM10
[16] = tested on: S. pneumoniae MMX 3031 cMefA; assay: MIC against S. pneumoniae MMX 3031 cMefA; settings: Streptococcus pneumoniae, MMX3031CMEFA
S. aureus MMX 3035 cErmA = assay: MIC against S. aureus MMX 3035 cErmA; settings: Staphylococcus aureus, MMX3035CERMA
E. coli MMX 0121 ΔTolC = assay: MIC against E. coli MMX 0121 ΔTolC; settings: Escherichia coli
B. fragilis ATCC 25285 = assay: MIC against B. fragilis ATCC 25285; settings: Bacteroides fragilis, ATCC25285; B. fragilis ATCC 25285; read-out: MIC
[17] = tested on: S. pyogenes MMX 946 Macrolide-Resistant; assay: MIC against S. pyogenes MMX 946 Macrolide-Resistant; settings: Streptococcus pyogenes
[18] = S. pyogenes ATCC 19615, read-out: MIC

Row | SMILES | MIC [1] [µg/mL] | MIC [2] [µg/mL] | MIC (P. aeruginosa ATCC 27853) [µg/mL] | MIC [4] [µg/mL] | MIC (E. faecalis UNT-047 VRE) [µg/mL] | MIC [5] [µg/mL] | MIC (S. aureus BAA 977 iErmA) [µg/mL] | MIC (E. faecalis ATCC 29212; ATCC29212) [µg/mL] | MIC (E. coli GUEST131 (NDM-1)) [µg/mL] | MIC [6] [µg/mL] | MIC [7] [µg/mL] | MIC (H. influenzae ATCC 49247) [µg/mL] | MIC (S. pneumoniae ATCC 49619) [µg/mL] | MIC (E. coli ATCC 15922) [µg/mL] | MIC [8] [µg/mL] | MIC [9] [µg/mL] | MIC [10] [µg/mL] | MIC [11] [µg/mL] | MIC [12] [µg/mL] | MIC (S. pyogenes ATCC 19615; [18]) [µg/mL] | other results
1 | CSC1O[C@H]([C@H](NC(=O)[C@H]2NC[C@@H]3C[C@@H](O)[C@@H](O)CO[C@H]32)[C@H](C)Cl)C(O)[C@@H](O)[C@H]1O (stereo partly shown) [FSA-501076] | > 64 | > 64 | > 64 | > 64 | > 64 | > 64 | > 64 | > 64 |  |  |  |  |  |  |  |  |  |  |  |  | MIC (E. coli MP-9 ΔTolC): > 64 µg/mL; MIC (K. pneumoniae ATCC 10031): > 64 µg/mL; MIC (S. aureus ATCC 29213; ATCC29213): > 64 µg/mL; MIC (E. coli ATCC 25922): > 64 µg/mL; MIC [3]: > 64 µg/mL; MIC (S. pyogenes ATCC 19615): > 64 µg/mL
2 | CSC1O[C@H]([C@H](NC(=O)[C@@H]2[C@@H]3OCCCC[C@H]3CN2C)[C@H](C)Cl)C(O)[C@@H](O)[C@H]1O (stereo partly shown) [FSA-24040] | > 32 |  | > 32 | > 32 | > 32 | > 32 |  |  | > 32 | > 32 | ≤ 0.0313 | 8 (≈ 17.7 µM) | ≤ 0.0313 | > 32 | > 32 | ≤ 0.0313 | > 32 | ≤ 0.0313 | ≤ 0.0313 | ≤ 0.0313 | MIC (K. pneumoniae ATCC 10031; K. pneumoniae ATCC 10031, read-out: MIC): 8 µg/mL (≈ 17.7 µM); MIC (S. aureus ATCC 29213; ATCC29213, S. aureus ATCC 29213, read-out: MIC): ≤ 0.0313 µg/mL
3 | CSC1O[C@H]([C@H](NC(=O)[C@H]2NC[C@@H]3CC(F)(F)CCO[C@H]32)[C@H](C)Cl)C(O)[C@@H](O)[C@H]1O (stereo partly shown) [FSA-24036] | > 32 |  |  | > 32 | > 32 | > 32 | 0.5 (≈ 1.05 µM) |  | > 32 | > 32 | ≤ 0.0313 | 4 (≈ 8.42 µM) | ≤ 0.06 |  | > 32 | ≤ 0.0313 | > 32 | ≤ 0.0313 | ≤ 0.0313 | ≤ 0.0313 | MIC ([13]; E. faecalis MMX 847 Macrolide-Resistant (MacRes), read-out: MIC): > 64 µg/mL; MIC (C. difficile BAA 1805): 2 µg/mL (≈ 4.21 µM); MIC (E. coli ATCC 15922; E. coli ATCC 15922, read-out: MIC): > 64 µg/mL; MIC ([14]; E. coli MMX TolC parent strain, read-out: MIC): > 64 µg/mL; MIC (P. aeruginosa ATCC 27853; P. aeruginosa ATCC 27853, read-out: MIC): > 64 µg/mL; MIC ([15]; P. aeruginosa MMX Mex parent strain, read-out: MIC): > 64 µg/mL; MIC (K. pneumoniae UNT TEM-10): > 32 µg/mL; MIC [16]: ≤ 0.06 µg/mL; MIC (S. aureus MMX 3035 cErmA; S. aureus MMX 3035 cErmA, read-out: MIC): > 64 µg/mL; MIC (E. coli MMX 0121 ΔTolC): 8 µg/mL (≈ 16.8 µM); MIC (E. faecalis ATCC 29212; ATCC29212, read-out: MIC): 4 µg/mL (≈ 8.42 µM); MIC (B. fragilis ATCC 25285): 4 µg/mL (≈ 8.42 µM); MIC ([17]; S. pyogenes MMX 946 Macrolide-Resistant (MacRes), read-out: MIC): 4 µg/mL (≈ 8.42 µM)
4 | CSC1O[C@H]([C@H](NC(=O)[C@H]2NC[C@@H]3CC=CCO[C@H]32)[C@H](C)Cl)C(O)[C@@H](O)[C@H]1O (stereo partly shown) [FSA-24035] | > 32 | 0.5 (≈ 1.14 µM) | > 64 | > 32 | > 32 | > 32 |  | 16 (≈ 36.6 µM) | > 32 |  | ≤ 0.0313 | 1 (≈ 2.29 µM) | ≤ 0.06 | > 64 | > 32 | ≤ 0.0313 | > 32 | ≤ 0.0313 | ≤ 0.0313 | ≤ 0.0313 | MIC ([6]; S. pneumoniae TP 1537 (ermB + mefA), read-out: MIC): 32 µg/mL; MIC [13]: > 64 µg/mL; MIC (C. difficile BAA 1805): 2 µg/mL (≈ 4.58 µM); MIC [14]: > 64 µg/mL; MIC [15]: > 64 µg/mL; MIC (K. pneumoniae UNT TEM-10): > 32 µg/mL; MIC [16]: ≤ 0.06 µg/mL; MIC (S. aureus MMX 3035 cErmA): > 64 µg/mL; MIC (E. coli MMX 0121 ΔTolC): 4 µg/mL (≈ 9.15 µM); MIC (B. fragilis ATCC 25285): 8 µg/mL (≈ 18.3 µM); MIC [17]: 16 µg/mL (≈ 36.6 µM)

— US20220073554A1, “LINCOSAMIDE ANTIBIOTICS AND USES THEREOF” (President and Fellows of Harvard College, priority 2017, published 2022)
